Laboratory results reported in patent US11419336B2, “Herbicidal combination” (UPL LTD, priority 2017, dated 2022).

Assays:
[1] = tested on: Digera sp.; assay: Field trial, burndown weed control on broadleaf weeds; format: in vivo; conditions: g ai/ha: saflufenacil 140, metribuzin 1150, pendimethalin 500 alone, mixture 112 + 920 + 571
Method: (§1) Studies were conducted to compare the weed controlling activity of the combination of saflufenacil, a triazine herbicide and pendimethalin. […] Any difference between the observed and “expected” efficacy could be attributed to synergy between the compounds in the control of a broad spectrum of weeds. The expected efficacy of a combination of saflufenacil, a triazine herbicide and an pendimethalin was calculated using the well-established Colby method.
(§2) In the Colby method, the expected (or predicted) response of a combination of herbicides is calculated by taking the product of the observed response for each individual component of the combination when applied alone divided by 100 and subtracting this value from the sum of the observed response for each component when applied alone. An unexpected enhancement in efficacy of the combination is then determined by comparing the observed response of the combination to the expected (or predicted) response as calculated from the observed response of each Individual component alone. If the observed response of the combination is greater than the expected (or predicted) response, or stated conversely, if the difference between the observed and expected response is greater than zero, then the combination is said to be synergistic or unexpectedly effective. (Colby, S. R., Weeds, 1967(15), p. 20-22) The Colby method requires only a single dose of each herbicide applied alone and the mixture of both doses.
(§3) The weed control activity of the individual herbicides of the invention and their combinations were evaluated on weeds such as those belonging to Echinochloa colona, Digitaria sanguinalis, Amaranthus viridis, Commelina benghalensis, and Cyperus rotundus. The trial was carried out in Randomized Complete Block (RCB) method. Each trial was replicated four times and conducted under GEP guidelines. Application volumes were varied for each mixture. Such field trials were carried out at various locations so as to generate independent data, the locations were chosen randomly across India. Saflufenacil, metribuzin and pendimethalin were sprayed according to their recommended dosage.
(§4) The following formula was used to calculate the expected activity of mixtures containing three active ingredients, A, B and C:
(§5) A=observed efficacy of active ingredient A at the same concentration as used in the mixture.
(§6) B=observed efficacy of active ingredient B at the same concentration as used in the mixture.
(§7) C=observed efficacy of active ingredient C at the same concentration as Used in the mixture.

[2] = tested on: Cyperus rotundus; assay: Field trial, burndown weed control on sedges; format: in vivo; conditions: g ai/ha: saflufenacil 140, metribuzin 1150, pendimethalin 500 alone, mixture 112 + 920 + 571
Method: Studies were conducted to compare the weed controlling activity of the combination of saflufenacil, a triazine herbicide and pendimethalin. […] Any difference between the observed and “expected” efficacy could be attributed to synergy between the compounds in the control of a broad spectrum of weeds. The expected efficacy of a combination of saflufenacil, a triazine herbicide and an pendimethalin was calculated using the well-established Colby method. […] An unexpected enhancement in efficacy of the combination is then determined by comparing the observed response of the combination to the expected (or predicted) response as calculated from the observed response of each Individual component alone. If the observed response of the combination is greater than the expected (or predicted) response, or stated conversely, if the difference between the observed and expected response is greater than zero, then the combination is said to be synergistic or unexpectedly effective. (Colby, S. R., Weeds, 1967(15), p. 20-22) The Colby method requires only a single dose of each herbicide applied alone and the mixture of both doses. The weed control activity of the individual herbicides of the invention and their combinations were evaluated on weeds such as those belonging to Echinochloa colona, Digitaria sanguinalis, Amaranthus viridis, Commelina benghalensis, and Cyperus rotundus. The trial was carried out in Randomized Complete Block (RCB) method. Each trial was replicated four times and conducted under GEP guidelines. Application volumes were varied for each mixture. Such field trials were carried out at various locations so as to generate independent data, the locations were chosen randomly across India. Saflufenacil, metribuzin and pendimethalin were sprayed according to their recommended dosage. The following formula was used to calculate the expected activity of mixtures containing three active ingredients, A, B and C: [formula] • Where A=observed efficacy of active ingredient A at the same concentration as used in the mixture. B=observed efficacy of active ingredient B at the same concentration as used in the mixture. C=observed efficacy of active ingredient C at the same concentration as Used in the mixture.

[3] = tested on: Echinochloa colona; assay: Field trial, burndown weed control on grasses; format: in vivo; conditions: g ai/ha: saflufenacil 140, metribuzin 1150, pendimethalin 500 alone
Method: as §1, §2, §3, §4, §5, §6, §7

[4] = tested on: Digitaria sanguinalis; assay: Field trial, burndown weed control on grasses; format: in vivo; conditions: g ai/ha: saflufenacil 140, metribuzin 1150, pendimethalin 500 alone
Method: as §1, §2, §3, §4, §5, §6, §7

[5] = tested on: Eleucine indica; assay: Field trial, burndown weed control on grasses; format: in vivo; conditions: g ai/ha: saflufenacil 140, metribuzin 1150, pendimethalin 500 alone, mixture 140 + 1150 + 500
Method: as §1, §2, §3, §4, §5, §6, §7

[6] = tested on: Eleucine indica; assay: Field trial, burndown weed control on grasses; format: in vivo; conditions: 15 DAA; g ai/ha: saflufenacil 140, metribuzin 1150, pendimethalin 500 alone; mixture 112 + 920 + 571
[7] = tested on: weeds; conditions: saflufenacil alone; cited from earlier work
[8] = 15 DAA, mixture 112 + 920 + 571
[9] = 15 DAA, mixture 140 + 1150 + 500
[10] = Table 3, 30 DAA, mixture 140 + 1150 + 500
[11] = Table 4, 30 DAA, mixture 140 + 1150 + 500

SMILES | % Weed control Burn Down Symptoms Generation, Digera sp. at 15 DAA, Actual [1] [%] | % Weed control Burn Down Symptoms Generation, Digera sp. at 30 DAA, Actual [1] [%] | % Weed control Burn Down Symptoms Generation, Cyperus rotundus at 15 DAA, Actual [2] [%] | % Weed control Burn Down Symptoms Generation, Cyperus rotundus at 30 DAA, Actual [2] [%] | % Weed control Burn Down Symptoms Generation, Echinochloa colona, Actual [3, 8] [%] | % Weed control Burn Down Symptoms Generation, Echinochloa colona, Actual [3, 9] [%] | % Weed control Burn Down Symptoms Generation, Echinochloa colona, Actual [3, 10] [%] | % Weed control Burn Down Symptoms Generation, Echinochloa colona, Actual [3, 11] [%] | % Weed control Burn Down Symptoms Generation, Digitaria sanguinalis, Actual [4, 8] [%] | % Weed control Burn Down Symptoms Generation, Digitaria sanguinalis, Actual [4, 9] [%] | % Weed control Burn Down Symptoms Generation, Digitaria sanguinalis, Actual [4, 10] [%] | % Weed control Burn Down Symptoms Generation, Digitaria sanguinalis, Actual [4, 11] [%] | % Weed control Burn Down Symptoms Generation, Eleucine indica, Actual ([5]; 15 DAA) [%] | % Weed control Burn Down Symptoms Generation, Eleucine indica, Actual ([5]; Table 3, 30 DAA) [%] | % Weed control Burn Down Symptoms Generation, Eleucine indica, Actual ([5]; Table 4, 30 DAA) [%] | % Weed control Burn Down Symptoms Generation, Eleucine indica, Actual [6] [%] | Efficacy in weed control beyond 30 days after treatment [7]
CC(C)N(C)S(=O)(=O)NC(=O)c1cc(-n2c(=O)cc(C(F)(F)F)n(C)c2=O)c(F)cc1Cl [Saflufenacil, N′-{2-chloro-4-fluoro-5-[1,2,3,6-tetrahydro-3-methyl-2,6-dioxo-4-(trifluoromethyl)pyrimidin-1-yl]benzoyl}-N-isopropyl-N-methylsulfamide] | 69.7 | 68.3 | 15 | 20 | 8.3 | 8.3 | 13 | 13 | 56.7 | 56.7 | 13.3 | 13.3 | 13.3 | 9.3 | 9.3 | 13.3 | reduced efficacy
CCC(CC)Nc1c([N+](=O)[O-])cc(C)c(C)c1[N+](=O)[O-] [Pendimethalin, N-(1-ethylpropyl)-2,6-dinitro-3,4-xylidine] | 66.7 | 7.0 | 31.7 | 25 | 58.3 | 58.3 | 53.3 | 53.3 | 56.7 | 56.7 | 50 | 50 | 46.7 | 45 | 45 | 46.7 | 
CSc1nnc(C(C)(C)C)c(=O)n1N [Metribuzin, 4-amino-6-tert-butyl-4,5-dihydro-3-methylthio-1,2,4-triazin-5-one] | 8.3 | 8.3 | 6.7 | 8.3 | 6.7 | 6.7 | 10 | 10 | 13.3 | 13.3 | 10 | 10 | 8.3 | 5.7 | 5.7 | 8.3 | 
